For this test, the target named is T1, Calpain I from human erythrocytes (Homo sapiens, UniProt P07384).
T1 construct: Calpain I was purified from human erythrocytes; from tissue; host or cells: human erythrocytes
T1 sequence (P07384 1-714): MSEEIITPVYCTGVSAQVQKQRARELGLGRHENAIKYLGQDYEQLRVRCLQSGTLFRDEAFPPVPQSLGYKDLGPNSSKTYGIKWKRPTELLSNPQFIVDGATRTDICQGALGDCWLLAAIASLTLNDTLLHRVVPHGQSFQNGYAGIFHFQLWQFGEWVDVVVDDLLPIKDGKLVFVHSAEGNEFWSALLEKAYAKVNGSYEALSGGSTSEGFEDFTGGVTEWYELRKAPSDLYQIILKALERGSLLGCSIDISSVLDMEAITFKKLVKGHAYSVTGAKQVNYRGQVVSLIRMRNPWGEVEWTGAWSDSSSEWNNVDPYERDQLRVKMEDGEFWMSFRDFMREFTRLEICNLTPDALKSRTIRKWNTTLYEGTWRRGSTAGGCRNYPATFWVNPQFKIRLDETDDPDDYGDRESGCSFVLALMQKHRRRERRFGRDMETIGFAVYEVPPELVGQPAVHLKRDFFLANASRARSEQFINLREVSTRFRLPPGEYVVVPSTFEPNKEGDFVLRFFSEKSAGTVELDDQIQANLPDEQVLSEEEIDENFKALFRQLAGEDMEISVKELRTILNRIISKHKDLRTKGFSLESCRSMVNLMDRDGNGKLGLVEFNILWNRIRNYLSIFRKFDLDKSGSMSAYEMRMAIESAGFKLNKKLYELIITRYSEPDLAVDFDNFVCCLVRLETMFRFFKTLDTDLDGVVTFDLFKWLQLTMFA
T1 sequence (P04632 1-268 partner): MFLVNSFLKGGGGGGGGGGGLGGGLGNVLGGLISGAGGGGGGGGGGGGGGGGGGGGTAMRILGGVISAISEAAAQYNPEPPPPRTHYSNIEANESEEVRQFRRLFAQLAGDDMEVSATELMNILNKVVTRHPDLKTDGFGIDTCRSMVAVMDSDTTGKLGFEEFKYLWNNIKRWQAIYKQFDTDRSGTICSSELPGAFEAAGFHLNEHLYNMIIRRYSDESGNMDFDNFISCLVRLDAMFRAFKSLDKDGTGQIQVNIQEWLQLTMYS
In words: Calpain I inhibition, Suc-Leu-Tyr-AMC hydrolysis (KI). Type of test: biochemical. The following applies: read-out: KI Cal I. How it is done: HEPES, heparin, and A23187 were obtained from Calbiochem. Suc-Leu-Tyr-AMC and chromogenic substrates were obtained from Sigma. Calpain I was purified from human erythrocytes according to the method of Kitahara (Kitahara et al., J. Biochem. 95, 1759-1766) omitting the Blue-Sepharose step. Calpain II from rabbit muscle and cathepsin B were purchased from Sigma. Papain was purchased from Calbiochem.
Peptide α-ketoamides were assayed as reversible enzyme inhibitors. Various concentrations of inhibitors in Me2 SO were added to the assay mixture which contained buffer and substrate. The reaction was started by the addition of the enzyme and the hydrolysis rates were followed spectrophotometrically or fluorimetrically.
Calpain I from human erythrocytes and calpain II from rabbit were assayed using Suc-Leu-Tyr-AMC Sasaki et al., J. Biol. Chem. 259, 12489-12494 (1984); incorporated herein by reference!, and the AMC (7-amino-4-methylcoumarin) release was followed fluorimetrically (excitation at 380 nm, and emmision at 460 nm). Calpains were assayed in 25 mM Tris pH=8.0, 10 mM CaC12. Fluorescence was followed using a Gilson FL-1A fluorometer or a Perkin-Elmer 203 Fluorescence spectrometer. Cathepsin B was assayed in 20 mM sodium acetate pH=5.2, 0.5 mM dithiothreitol using Bz-Phe-Val-Arg-p-nitroanilide as substrate. Alternately, cathepsin B was assayed with Z-Arg-Arg-AFC Barrett and Kirschke, Methods Enzymol. 80, 535-561 (1981); incorporated herein by reference!, and the AFC (7-amino-4-trifluoromethylcoumarin) release was followed fluorimetrically (excitation at 400 nm and emmision at 505 nm). Papain was assayed in 100 mM KPO4, 1 mM EDTA, 2.5 mM cysteine pH=6.0 using Bz-Arg-AMC or Bz-Arg-NA Kanaoka et al., Chem. Pharm. Bull. 25, 3126-3128 (1977); incorporated herein by reference! as a substrate. The AMC (7-amino-4-methylcoumarin) release was followed fluorimetrically (excitation at 380 nm, and emmision at 460 nm). Enzymatic hydrolysis rates were measured at various substrate and inhibitor concentrations, and KI values were determined by either Lineweaver-Burk plots or Dixon plots.
A 0.1M Hepes, 0.5M NaCl, pH 7.5 buffer was utilized for human leukocyte elastase (HLE), porcine pancreatic elastase (PPE), chymotrypsin and cathepsin G. A 0.1 Hepes, 0.01 M CaCl2, pH 7.5 buffer was utilized for trypsin, plasmin, and coagulation enzymes. A 50 mM Tris.HCl, 2 mM EDTA, 5 mM cysteine, pH 7.5 was used as a buffer for papain. A 88 mM KH2 PO4, 12 mM Na2 HPO4, 1.33 mM EDTA, 2.7 mM cysteine, pH 6.0 solution was used as a buffer for cathepsin B. A 20 mM Hepes, 10 mM CaCl2, 10 mM mercatoethanol, pH 7.2 buffer was utilized for calpain I and calpain II.

Where [1] appears, read: Table 2, Z-Leu--AA--CONH--CH2 CH(OH)-R.

Like-named read-outs stand apart in the source and are kept apart here.

For `CCNC(=O)C(=O)C(CC)NC(=O)C(CC(C)C)NC(=O)c1nccc2ccccc12` (stereo not drawn) [1-isoquinolinyl-CO-Leu-Abu-CONH-Et, 1-Isoquinolinyl-CO-Leu-Abu-CONHEt], the Ki (Table 3, M1 CO-Leu--AA--CONH-R) is 350 nM. `CCNC(=O)C(=O)C(CC)NC(=O)C(CC(C)C)NC(=O)c1ccco1` (stereo not drawn) [2-furyl-CO-Leu-Abu-CONH-Et, 2-Furyl-CO-Leu-Abu-CONHEt]: the Ki (Table 3, M1 CO-Leu--AA--CONH-R) was found to be 850 nM. Take `CCNC(=O)C(=O)C(CC)NC(=O)C(CC(C)C)NC(=O)c1cnccn1` (stereo not drawn) [2-pyrazinyl-CO-Leu-Abu-CONH-Et, 2-Pyrazinyl-CO-Leu-Abu-CONHEt]: the inhibition constant (Ki) (Table 3, M1 CO-Leu--AA--CONH-R) came out at 300 nM. As to `CCNC(=O)C(=O)C(CC)NC(=O)C(CC(C)C)NC(=O)C1CCCO1` (stereo not drawn) [2-tetrahydrofuryl-CO-Leu-Abu-CONH-Et, 2-Tetrahydrofuryl-CO-Leu-Abu-CONHEt], the inhibitory constant (Ki) (Table 3, M1 CO-Leu--AA--CONH-R) stood at 18500 nM.

With `CCNC(=O)C(=O)C(CC)NC(=O)C(CC(C)C)NC(=O)c1cccnc1` (stereo not drawn) [3-pyridyl-CO-Leu-Abu-CONH-Et, 3-Pyridyl-CO-Leu-Abu-CONHEt], the inhibition constant (Ki) (Table 3, M1 CO-Leu--AA--CONH-R) came to 1300 nM.

On to `CCNC(=O)C(=O)C(CC)NC(=O)C(CC(C)C)NC(=O)N1CCOCC1` (stereo not drawn) [4-morpholinyl-CO-Leu-Abu-CONH-Et, 4-Morpholinyl-CO-Leu-Abu-CONHEt], for which the inhibitory constant (Ki) (Table 3, M1 CO-Leu--AA--CONH-R) turned out to be 7900 nM. On to `CCNC(=O)C(=O)[C@H](CC)NC(=O)[C@H](CC(C)C)NC(=O)CCC(=O)OC` [CH3 OCO(CH2)2-CO-Leu-Abu-CONH-Et, CH3 OCO(CH2)2 CO-Leu-Abu-CONHEt], for which the Ki (Table 3, M1 CO-Leu--AA--CONH-R) came out at 3800 nM.

As to `CCC(NC(=O)C(CC(C)C)NC(=O)C(c1ccccc1)c1ccccc1)C(=O)C(=O)NCC(O)c1ccccc1` (stereo not drawn) [Ph2 CH-CO-Leu-Abu-CONH-CH2 CH(OH)Ph, Ph2 CHCO-Leu-Abu-CONH--CH2 CH(OH)Ph], the Ki (Table 3, M1 CO-Leu--AA--CONH-R) is 750 nM. On to `CCC(NC(=O)C(CC(C)C)NC(=O)OCc1ccccc1)C(=O)C(=O)NCCCN1CCCc2ccccc21` (stereo not drawn) [Z-Leu-Abu-CONH--(CH2)3 -1-Tetrahydroquinolinyl], for which, where the note is “Table 1, Z-Leu--AA--CONHR”, the inhibitory constant (Ki) is 370 nM.

As to `CCC(NC(=O)C(CC(C)C)NC(=O)OCc1ccccc1)C(=O)C(=O)NCC(O)c1cccc(Oc2ccc(Cl)c(Cl)c2)c1` (stereo not drawn) [Z-Leu-Abu-CONH--CH2 CH(OH)C6 H4 -3-OC6 H3 (3,4-Cl2)], the inhibitory constant (Ki) under setting [1] amounted to 270 nM. With `CCC(NC(=O)C(CC(C)C)NC(=O)OCc1ccccc1)C(=O)C(=O)NCc1nc(C)cs1` (stereo not drawn) [Z-Leu-Abu-CONH-CH2 -2-(4-methylthiazole), Z-Leu-Abu-CONH--CH2 -2-(4-Methyl-2-thiazolyl)], the inhibitory constant (Ki) (Table 1, Z-Leu--AA--CONHR) is 34000 nM. Turning to `CCC(NC(=O)[C@H](CC(C)C)NC(=O)OCc1ccccc1)C(=O)C(=O)NCc1ccc2ccccc2n1` (stereo partly drawn) [Z-Leu-Abu-CONH-CH2 -2-quinolinyl, Z-Leu-Abu-CONH--CH2 -2-Quinolinyl], the Ki (Table 1, Z-Leu--AA--CONHR) came out at 130 nM. Regarding `CCC(NC(=O)C(CC(C)C)NC(=O)OCc1ccccc1)C(=O)C(=O)NCc1ccc[n+]([O-])c1` (stereo not drawn) [Z-Leu-Abu-CONH-CH2 -3-pyridyl-N-oxide, Z-Leu-Abu-CONH--CH2 -3-Pyridyl-N-oxide], the inhibition constant Ki (Table 1, Z-Leu--AA--CONHR) is 9500 nM. For `CCC(NC(=O)C(CC(C)C)NC(=O)OCc1ccccc1)C(=O)C(=O)NCc1cc(=O)[nH]c(=O)[nH]1` (stereo not drawn) [Z-Leu-Abu-CONH-CH2 -6-uracil, Z-Leu-Abu-CONH--CH2 -6-Uracil], the inhibition constant (Ki) (Table 1, Z-Leu--AA--CONHR) stood at 9000 nM.

As for `CCC(NC(=O)C(CC(C)C)NC(=O)OCc1ccccc1)C(=O)C(=O)NCC(O)c1cccc2ccccc12` (stereo not drawn) [Z-Leu-Abu-CONH-CH2 CH(OH)-1-C10 H7, Z-Leu-Abu-CONH--CH2 CH(OH)-1-C10 H7], the inhibition constant (Ki) under setting [1] was 120 nM.

As for `CCC(NC(=O)C(CC(C)C)NC(=O)OCc1ccccc1)C(=O)C(=O)NCC(O)c1ccc2ccccc2c1` (stereo not drawn) [Z-Leu-Abu-CONH-CH2 CH(OH)-2-C10 H7, Z-Leu-Abu-CONH--CH2 CH(OH)-2-C10 H7], the inhibition constant Ki under setting [1] stood at 350 nM. With `CC(C)CC(NC(=O)OCc1ccccc1)C(=O)NC(Cc1ccccc1)C(=O)C(=O)NCCNC(=O)CCCCC1SCC2NC(=O)NC21` (stereo not drawn) [Z-Leu-Phe-CONH-(CH2)2 NH-biotinyl, Z-Leu-Phe-CONH--(CH2)2 NH-Biotinyl], for the setting “Table 1, Z-Leu--AA--CONHR”, the inhibition constant Ki came out at 220 nM. For the compound `CC(C)CC(NC(=O)OCc1ccccc1)C(=O)NC(Cc1ccccc1)C(=O)C(=O)NCCCN1CCCc2ccccc21` (stereo not drawn) [Z-Leu-Phe-CONH--(CH2)3-1-Tetrahydroquinolinyl], for the setting “Table 1, Z-Leu--AA--CONHR”, the inhibition constant Ki was 380 nM.

`CC(C)CC(NC(=O)OCc1ccccc1)C(=O)NC(Cc1ccccc1)C(=O)C(=O)NCCCN1CCc2ccccc2C1` (stereo not drawn) [Z-Leu-Phe-CONH--(CH2)3-2-Tetrahydroisoquinolinyl]: the inhibitory constant (Ki) (Table 1, Z-Leu--AA--CONHR) came to 220 nM. As to `CC(C)CC(NC(=O)OCc1ccccc1)C(=O)NC(Cc1ccccc1)C(=O)C(=O)NCC(O)c1cccc(Oc2ccc(Cl)c(Cl)c2)c1` (stereo not drawn) [Z-Leu-Phe-CONH--CH2 CH(OH)C6 H4 -3-OC6 H3 (3,4-Cl2)], under setting [1], the Ki was 590 nM.

As for `CC(C)CC(NC(=O)OCc1ccccc1)C(=O)NC(Cc1ccccc1)C(=O)C(=O)NCC(O)c1c(F)c(F)c(F)c(F)c1F` (stereo not drawn) [Z-Leu-Phe-CONH-CH2 CH(OH)-C6 F5, Z-Leu-Phe-CONH--CH2 CH(OH)C6 F5], the Ki under setting [1] was determined as 700 nM. With `CC(C)CC(NC(=O)OCc1ccccc1)C(=O)NC(Cc1ccccc1)C(=O)C(=O)NCC(O)c1cccc(Oc2ccccc2)c1` (stereo not drawn) [Z-Leu-Phe-CONH-CH2 CH(OH)-C6 H4 (3-OPh), Z-Leu-Phe-CONH--CH2 CH(OH)C6 H4 (3-OPh)], under setting [1], the Ki was 600 nM. On to “Ph2 CHCO-Leu-Abu-CONHEt [Ph2 CH-CO-Leu-Abu-CONH-Et]”, for which the inhibition constant Ki (Table 3, M1 CO-Leu--AA--CONH-R) stood at 5000 nM.

Turning to “Z-Leu-Abu-CONH--CH2 CH(OH)C6 H2 (2,4,6-(OCH3)3)”, the Ki under setting [1] was 380 nM.

As to “Z-Leu-Phe-CONH--CH2 CH(OH)C6 H4 (3-CF3) [Z-Leu-Phe-CONH-CH2 CH(OH)-C6 H4 (3-CF3)]”, the Ki under setting [1] was 460 nM.

For the origin of these results see patent publication US5514694A, “Peptidyl ketoamides” (Georgia Tech Research Corp, priority 1993, dated 1996).
